Assay results from publication PMC10698726 (Molecular Pharmaceutics, 2023).

Legend:
[1] = molecular target: T1, OCT2 (Homo sapiens, UniProt O15244); experiment: Inhibition of model substrate uptake in OCT2-overexpressing HEK293 cells; details: for IC50: IC50, OCT2, Table S5, 2 μM ASP+ as model substrate; for selectivity ratio at 5 min / inhibition at 5 min, 20 μM: human, OCT2-overexpressing HEK293 cells; for selectivity ratio at 5 min: pH 7.4
T1 sequence (O15244 1-555): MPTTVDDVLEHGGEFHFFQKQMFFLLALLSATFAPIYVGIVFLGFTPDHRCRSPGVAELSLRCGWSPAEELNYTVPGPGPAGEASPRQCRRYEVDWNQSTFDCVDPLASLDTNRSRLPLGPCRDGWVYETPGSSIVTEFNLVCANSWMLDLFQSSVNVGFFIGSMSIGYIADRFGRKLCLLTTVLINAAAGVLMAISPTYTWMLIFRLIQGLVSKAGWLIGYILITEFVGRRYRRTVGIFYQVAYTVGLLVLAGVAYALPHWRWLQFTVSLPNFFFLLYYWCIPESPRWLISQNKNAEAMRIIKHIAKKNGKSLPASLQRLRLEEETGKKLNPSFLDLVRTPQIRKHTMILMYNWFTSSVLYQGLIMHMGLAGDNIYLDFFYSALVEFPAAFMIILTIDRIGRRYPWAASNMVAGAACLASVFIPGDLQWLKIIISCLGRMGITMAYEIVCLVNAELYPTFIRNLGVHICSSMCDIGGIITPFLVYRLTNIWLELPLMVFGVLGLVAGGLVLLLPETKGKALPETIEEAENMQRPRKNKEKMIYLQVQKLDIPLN

[2] = molecular target: T2, OCT3 (Homo sapiens, UniProt O75751); experiment: Concentration-dependent uptake of model substrates, OCT3-overexpressing HEK293 cells; format: in vitro ADME; details: vmax over Km, this study
T2 construct: expressed in transfected cells; host or cells: HEK293
T2 sequence (O75751 1-556): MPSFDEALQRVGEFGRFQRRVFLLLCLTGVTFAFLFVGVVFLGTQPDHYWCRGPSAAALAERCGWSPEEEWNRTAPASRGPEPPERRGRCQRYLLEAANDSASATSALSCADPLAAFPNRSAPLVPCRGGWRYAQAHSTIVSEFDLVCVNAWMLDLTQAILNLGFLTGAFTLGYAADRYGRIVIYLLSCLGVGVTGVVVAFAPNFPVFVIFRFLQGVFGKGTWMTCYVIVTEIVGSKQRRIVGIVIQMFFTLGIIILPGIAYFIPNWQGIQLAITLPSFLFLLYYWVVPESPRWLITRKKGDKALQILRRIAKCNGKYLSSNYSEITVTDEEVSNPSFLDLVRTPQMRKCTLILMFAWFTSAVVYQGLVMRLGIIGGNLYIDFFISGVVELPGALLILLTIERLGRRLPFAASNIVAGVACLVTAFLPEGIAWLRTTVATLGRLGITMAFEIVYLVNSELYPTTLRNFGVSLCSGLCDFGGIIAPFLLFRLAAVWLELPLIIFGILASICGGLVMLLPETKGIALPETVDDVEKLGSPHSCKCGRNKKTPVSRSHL
Experimental: Koepsell and Gorbulev (University of Würzburg, Germany).
Prior to inhibition studies, the used model substrates were validated in concentration-dependent uptake experiments if no literature data were available (Table S2 and Figures S2 and S3). Thereby, we ensured that the model substrate concentration used in the subsequent inhibition experiments was sufficiently below the Km value of its uptake kinetics. […] On the day of the experiment, the cells were washed once with prewarmed to 37 °C HBSS (Thermo Fisher Scientific, Darmstadt, Germany) supplemented with 10 mM HEPES and pH adjusted to 7.4 (Sigma-Aldrich)—hereafter termed HBSS+. For concentration-dependent experiments, the cells were incubated with increasing substrate concentrations for 2 min. Uptake was terminated by adding ice-cold HBSS+. Afterward, the cells were washed twice with ice-cold HBSS+, and cell lysis was done with 80% (v/v) acetonitrile (LGC Standards, Wesel, Germany) to which an internal standard for eventual LC–MS/MS analysis had been added. Intracellularly accumulated substrates were then quantified by LC–MS/MS analysis, and calibration was performed with known concentrations of the respective substances. All uptake data were normalized to the number of seeded cells by measuring the total protein content in radioimmunoprecipitation assay buffer-lysed cells in a bicinchoninic acid assay.[29]

[3] = pH 7.4, probe ASP+ (2 μM), ASP+ inhibition [%], OCT2, 20 μM inhibitor, 2 μM ASP+, 5 min
[4] = pH 7.4, probe (S,S)-ethambutol (2 μM), (S,S)-Ethambutol inhibition [%], OCT2, 20 μM inhibitor, 2 μM (S,S)-ethambutol, 5 min
[5] = pH 7.4, probe N-ethyllidocaine (2 μM), N-Ethyllidocaine inhibition [%], OCT2, 20 μM inhibitor, 2 μM N-ethyllidocaine, 5 min

SMILES: CCN(CC)CC#CCOC(=O)[C@](O)(c1ccccc1)C1CCCCC1 [(R)-Oxybutynine]
- IC50 ([1]; 5 min): 31.8 µM
- (S,S)-Ethambutol inhibition [%] ([1]; OCT2, 20 μM inhibitor, 2 μM (S,S)-ethambutol, 5 min): 7.4%
- N-Ethyllidocaine inhibition [%] ([1]; OCT2, 20 μM inhibitor, 2 μM N-ethyllidocaine, 5 min): 28.2%
- selectivity ratio at 5 min [1]: 1.6
- inhibition at 5 min, 20 μM [1, 3]: 86.1%

SMILES: CCCN[C@H]1CCc2nc(N)sc2C1 [(S)-Pramipexole]
- IC50 ([1]; 5 min): 82.4 µM
- selectivity ratio at 5 min [1]: 4
- inhibition at 5 min, 20 μM [1, 4]: 15.8%
- inhibition at 5 min, 20 μM [1, 3]: 16.4%
- inhibition at 5 min, 20 μM [1, 5]: 19.6%

SMILES: CN(C)CCc1c[nH]c2ccc(C[C@H]3COC(=O)N3)cc12 [(S)-Zolmitriptan]
- inhibition at 5 min, 20 μM [1, 4]: 13.3%
- inhibition at 5 min, 20 μM [1, 3]: 17.2%
- inhibition at 5 min, 20 μM [1, 5]: 7.3%
- Clint ± SEM [2]: 24.0
